≈ marks a conversion by molar mass, not a printed value.
Tests used:
[1] = Assessment of solubility (McIlvaine buffers, 24 h shake, UPLC-UV); format: physicochemical; conditions: kinetic from dmso stock
Procedure, shortened: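 Compounds from 10 mM DMSO stocks were shaken for 24 h at room temperature in McIlvaine buffers at pH 2.2, 4.5 and 6.8 (2.5% v/v DMSO final), then filtered. Filtrates were quantified by UPLC-UV at 254 nm against a 50:50 acetonitrile/water reference assumed fully dissolved, as a single determination.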

[2] = target: T1, human soluble guanylate cyclase alpha 1 and beta 1 subunits (sGC) (Homo sapiens, UniProt Q02108+Q02153); experiment: sGC cellular activator assay (cGMP, HTRF); format: cell-based; conditions: CHO cells stably expressing human sGC alpha 1/beta 1, preincubated with 40 microM ODQ; cGMP readout; assay run with and without 50% human serum, Table 2 does not say which
T1 construct: expressed in transfected cells; host or cells: Chinese hamster ovary (CHO) cells, stably transfected
T1 sequence (Q02108 1-690): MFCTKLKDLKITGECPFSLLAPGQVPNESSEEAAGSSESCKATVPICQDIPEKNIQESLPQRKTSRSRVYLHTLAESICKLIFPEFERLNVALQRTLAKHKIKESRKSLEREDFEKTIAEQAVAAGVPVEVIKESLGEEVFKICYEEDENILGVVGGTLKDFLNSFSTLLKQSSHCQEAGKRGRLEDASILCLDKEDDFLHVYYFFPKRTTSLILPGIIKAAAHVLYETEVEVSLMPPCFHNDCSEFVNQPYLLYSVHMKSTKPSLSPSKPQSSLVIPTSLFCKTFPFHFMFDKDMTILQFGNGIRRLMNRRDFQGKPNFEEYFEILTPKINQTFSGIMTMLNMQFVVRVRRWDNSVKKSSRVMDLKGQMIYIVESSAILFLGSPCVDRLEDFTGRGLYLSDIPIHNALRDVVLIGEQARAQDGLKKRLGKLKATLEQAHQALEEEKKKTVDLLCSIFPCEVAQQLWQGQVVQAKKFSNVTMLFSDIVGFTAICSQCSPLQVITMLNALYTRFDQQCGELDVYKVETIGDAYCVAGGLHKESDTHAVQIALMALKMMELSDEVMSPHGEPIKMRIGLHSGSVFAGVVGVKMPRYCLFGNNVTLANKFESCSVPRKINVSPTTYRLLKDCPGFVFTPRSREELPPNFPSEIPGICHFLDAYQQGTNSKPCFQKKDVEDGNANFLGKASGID
T1 sequence (Q02153 1-619): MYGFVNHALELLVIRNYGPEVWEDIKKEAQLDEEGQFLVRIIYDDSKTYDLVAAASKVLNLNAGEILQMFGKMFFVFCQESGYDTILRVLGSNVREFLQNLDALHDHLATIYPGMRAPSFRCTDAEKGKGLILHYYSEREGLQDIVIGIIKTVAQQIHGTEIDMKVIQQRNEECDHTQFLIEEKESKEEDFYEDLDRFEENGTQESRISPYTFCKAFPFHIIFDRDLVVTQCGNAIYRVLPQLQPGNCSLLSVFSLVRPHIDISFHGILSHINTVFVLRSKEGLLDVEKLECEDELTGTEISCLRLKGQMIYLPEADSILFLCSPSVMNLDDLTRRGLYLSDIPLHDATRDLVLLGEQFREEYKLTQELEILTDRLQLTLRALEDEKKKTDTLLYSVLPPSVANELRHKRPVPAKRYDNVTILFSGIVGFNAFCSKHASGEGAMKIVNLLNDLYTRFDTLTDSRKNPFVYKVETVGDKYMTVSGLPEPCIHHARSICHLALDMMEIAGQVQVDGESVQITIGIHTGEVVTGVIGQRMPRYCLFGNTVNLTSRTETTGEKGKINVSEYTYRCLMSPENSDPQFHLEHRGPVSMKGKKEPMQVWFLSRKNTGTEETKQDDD
Procedure, shortened: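 Heme-oxidized conditions: ODQ (40 microM, 1 h) pretreatment of CHO cells stably expressing human α1/β1 sGC, in buffer containing 0.1% BSA and IBMX.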

| SMILES | solubility at 24 h ([1]; pH 2.2, aqueous buffer) [µg/mL] | solubility at 24 h ([1]; pH 4.5, aqueous buffer) [µg/mL] | solubility at 24 h ([1]; pH 6.8, aqueous buffer) [µg/mL] | EC50 [2] [nM] |
| --- | --- | --- | --- | --- |
| COc1c(C(=O)O)cnn1-c1cccc(-c2cccc(C)c2OCc2ccc3c(c2)CCN(C2CCOCC2C)C3)n1 (stereo not shown) [Compound 86] | 110 (≈ 193 µM) | 90 (≈ 158 µM) | 91 (≈ 160 µM) | 41 |
| COc1c(C(=O)O)cnn1-c1cccc(-c2cccc(C)c2OCc2ccc3c(c2)CCN(C2CC4CCC(C2)O4)C3)n1 (stereo not shown) [Compound 87] | 110 (≈ 189 µM) | 87 (≈ 150 µM) | 90 (≈ 155 µM) | 55 |
| COc1c(C(=O)O)cnn1-c1cccc(-c2cccc(C(F)(F)F)c2OCc2ccc3c(c2C)CCN(C2COC2)C3)n1 [Compound 88] | 90 (≈ 151 µM) | 63 (≈ 106 µM) | 75 (≈ 126 µM) | 28 |
| COc1c(C(=O)O)cnn1-c1cccc(-c2cccc(C)c2OCc2ccc3c(c2)C(C)(C)CN(C2CCOCC2)C3)n1 [Compound 89] | 130 (≈ 223 µM) | 92 (≈ 158 µM) | 81 (≈ 139 µM) | 150 |
| COc1c(C(=O)O)cnn1-c1cccc(-c2cccc(C)c2OCc2ccc3c(c2)CCN([C@H]2CC[C@H](OC)CC2)C3)n1 [Compound 90] | 100 (≈ 172 µM) | 81 (≈ 139 µM) | 81 (≈ 139 µM) | 69 |
| COc1c(C(=O)O)cnn1-c1cccc(-c2cccc(C)c2OCc2ccc3c(c2)CCN([C@H]2CC[C@@H](OC)CC2)C3)n1 [Compound 91] | 100 (≈ 172 µM) | 81 (≈ 139 µM) | 81 (≈ 139 µM) | 75 |
| COc1c(C(=O)O)cnn1-c1cccc(-c2cccc(C)c2OCc2ccc3c(c2)CCN(CC2COCCO2)C3)n1 (stereo not shown) [Compound 92] | 110 (≈ 193 µM) | 93 (≈ 163 µM) | 96 (≈ 168 µM) | 20 |
| COc1c(C(=O)O)cnn1-c1cccc(-c2cccc(C(F)(F)F)c2OCc2ccc3c(c2)CN(C2CCOCC2)C3)n1 [Compound 93] | 98 (≈ 165 µM) | 77 (≈ 130 µM) | 81 (≈ 136 µM) | 37 |
| CCOc1c(C(=O)O)cnn1-c1cccc(-c2cccc(C)c2OCc2ccc3c(c2)CCN(C2CCOCC2F)C3)n1 (stereo not shown) [Compound 94] | 91 (≈ 155 µM) | 68 (≈ 116 µM) | 73 (≈ 124 µM) | 45 |
| CCOc1c(C(=O)O)cnn1-c1cccc(-c2cccc(C)c2OCc2ccc3c(c2)CCN(CC2CC(F)(F)C2)C3)n1 [Compound 96] | 93 (≈ 158 µM) | 67 (≈ 114 µM) | 75 (≈ 127 µM) | 24 |
